In patent US20140213447A1, “HERBICIDAL COMPOSITIONS COMPRISING 4-AMINO-3-CHLORO-6-(4-CHLORO-2-FLUORO-3-METHOXYPHENYL) PYRIDINE-2-CARBOXYLIC ACID OR A DERIVATIVE THEREOF AND CERTAIN TRIAZOLOPYRIMIDINE SULFONAMIDES” (DOW AGROSCIENCES LLC, priority 2013, published 2014):

What was measured:
Type in all cases: in vivo
Conditions in all cases: alone, 14 d
[1] = tested on: Brassica napus (winter oilseed rape); test: Postemergent herbicidal activity, greenhouse foliar application, BRSNW
Description: (§1) Evaluation of Postemergent Herbicidal Activity. Seeds or nutlets of the desired test plant species were planted in Sun Gro Metro-Mix® 360 planting mixture, which typically has a pH of 6.0 to 6.8 and an organic matter content of about 30 percent, in plastic pots with a surface area of 64 square centimeters (cm^2). When required to ensure good germination and healthy plants, a fungicide treatment and/or other chemical or physical treatment was applied. The plants were grown for 7-21 days (d) in a greenhouse with an approximate 15 hour (h) photoperiod which was maintained at about 23-29° C. during the day and 22-28° C. during the night. Nutrients and water were added on a regular basis and supplemental lighting was provided with overhead metal halide 1000-Watt lamps as necessary. The plants were employed for testing when they reached the first or second true leaf stage.
(§2) A weighed amount, determined by the highest rate to be tested, of each test compound was placed in a 25 milliliter (mL) glass vial and was dissolved in 4 mL of a 97:3 volume per volume (v/v) mixture of acetone and dimethyl sulfoxide (DMSO) to obtain concentrated stock solutions. […] The concentrated stock solutions obtained were diluted with 20 mL of an aqueous mixture containing acetone, water, isopropyl alcohol, DMSO, Atplus 411F crop oil concentrate, and Triton® X-155 surfactant in a 48.5:39:10:1.5:1.0:0.02 v/v ratio to obtain spray solutions containing the highest application rates. Additional application rates were obtained by serial dilution of 12 mL of the high rate solution into a solution containing 2 mL of a 97:3 v/v mixture of acetone and DMSO and 10 mL of an aqueous mixture containing acetone, water, isopropyl alcohol, DMSO, Atplus 411F crop oil concentrate, and Triton X-155 surfactant in a 48.5:39:10:1.5:1.0:0.02 v/v ratio to obtain ½×, ¼×, ⅛× and 1/16× rates of the high rate. Compound requirements are based upon a 12 mL application volume at a rate of 187 liters per hectare (L/ha). Formulated compounds were applied to the plant material with an overhead Mandel track sprayer equipped with 8002E nozzles calibrated to deliver 187 L/ha over an application area of 0.503 square meters (m^2) at a spray height of 18 inches ([…]) above the average plant canopy height. Control plants were sprayed in the same manner with the solvent blank.
(§3) Treatments consisted of the methyl ester of 4-amino-3-chloro-6-(4-chloro-2-fluoro-3-methoxyphenyl)pyridine-2-carboxylic acid (Cmpd 1) as technical grade material and cloransulam-methyl (FirstRate®) and diclosulam (Strongarm®) alone and in combination. The form of compound of formula (I) was applied on an acid equivalent basis, and cloransulam-methyl and diclosulam were applied on an active ingredient basis.
(§4) The treated plants and control plants were placed in a greenhouse as described above and watered by subirrigation to prevent wash-off of the test compounds. After 14 d, the condition of the test plants as compared with that of the untreated plants was determined visually and scored on a scale of 0 to 100 percent where 0 corresponds to no injury and 100 corresponds to complete kill.
(§5) Results in Tables 1 and 2 are greenhouse trial results for foliar applied compositions. The values reported are percent (%) control visually rated. Colby's equation was used to determine the herbicidal effects expected from the mixtures (Colby, S. R. Calculation of the synergistic and antagonistic response of herbicide combinations. Weeds 1967, 15, 20-22.). More specifically, the following equation was used to calculate the expected activity of mixtures containing two active ingredients, A and B:
(§6) Expected=A+B−(A×B/100) • A=observed efficacy of active ingredient A at the same concentration as used in the mixture; • B=observed efficacy of active ingredient B at the same concentration as used in the mixture.

[2] = tested on: Chenopodium album L. (common lambsquarters); test: Postemergent herbicidal activity, greenhouse foliar application, CHEAL
Description: as §1, §2, §3, §4, §5, §6

[3] = tested on: Viola tricolor (L.) (wild pansy); test: Postemergent herbicidal activity, greenhouse foliar application, VIOTR
Description: as §1, §2, §3, §4, §5, §6

[4] = tested on: Stellaria media (L.) Vill. (common chickweed); test: Postemergent herbicidal activity, greenhouse foliar application, STEME
Description: as §1, §2, §3, §4, §5, §6

[5] = tested on: Setaria faberi Herrm. (giant foxtail); test: Postemergent herbicidal activity, greenhouse foliar application, SETFA
Description: as §1, §2, §3, §4, §5, §6

[6] = tested on: Sorghum vulgare (common sorghum); test: Postemergent herbicidal activity, greenhouse foliar application, SORVU
Description: as §1, §2, §3, §4, §5, §6

[7] = tested on: Amaranthus retroflexus L. (redroot pigweed); test: Postemergent herbicidal activity, greenhouse foliar application, AMARE
Description: as §1, §2, §3, §4, §5, §6

[8] = tested on: Ipomoea hederacea (L.) Jacq. (ivyleaf momingglory); test: Postemergent herbicidal activity, greenhouse foliar application, IPOHE
Description: as §1, §2, §3, §4, §5, §6

[9] = tested on: Cyperus esculentus L. (yellow nutsedge); test: Postemergent herbicidal activity, greenhouse foliar application, CYPES
Description: as §1, §2, §3, §4, §5, §6

CCOc1nc(F)cc2nc(S(=O)(=O)Nc3c(Cl)cccc3C(=O)OC)nn12 [cloransulam-methyl, methyl 3-chloro-2-[[(5-ethoxy-7-fluoro[1,2,4]triazolo[1,5-c]pyrimidin-2-yl)sulfonyl]amino]benzoate]
BRSNW Obs, percent (%) control rated visually ([1]; 4.375 g ai/ha): 90% | BRSNW Obs, percent (%) control rated visually ([1]; 8.75 g ai/ha): 93% | BRSNW Obs, percent (%) control rated visually ([1]; 17.5 g ai/ha): 95% | CHEAL Obs, percent (%) control rated visually ([2]; 4.375 g ai/ha): 0% | CHEAL Obs, percent (%) control rated visually ([2]; 8.75 g ai/ha): 10% | CHEAL Obs, percent (%) control rated visually ([2]; 17.5 g ai/ha): 20% | VIOTR Obs, percent (%) control rated visually ([3]; 4.375 g ai/ha): 10% | VIOTR Obs, percent (%) control rated visually ([3]; 8.75 g ai/ha): 50% | VIOTR Obs, percent (%) control rated visually ([3]; 17.5 g ai/ha): 65% | STEME Obs, percent (%) control rated visually ([4]; 4.375 g ai/ha): 0% | STEME Obs, percent (%) control rated visually ([4]; 8.75 g ai/ha): 0% | STEME Obs, percent (%) control rated visually ([4]; 17.5 g ai/ha): 0% | SETFA Obs, percent (%) control rated visually ([5]; 4.375 g ai/ha): 0% | SETFA Obs, percent (%) control rated visually ([5]; 8.75 g ai/ha): 0% | SETFA Obs, percent (%) control rated visually ([5]; 17.5 g ai/ha): 0% | SORVU Obs, percent (%) control rated visually ([6]; 4.375 g ai/ha): 0% | SORVU Obs, percent (%) control rated visually ([6]; 8.75 g ai/ha): 10% | SORVU Obs, percent (%) control rated visually ([6]; 17.5 g ai/ha): 20% | AMARE Obs, percent (%) control rated visually ([7]; 4.375 g ai/ha): 0% | AMARE Obs, percent (%) control rated visually ([7]; 8.75 g ai/ha): 10% | AMARE Obs, percent (%) control rated visually ([7]; 17.5 g ai/ha): 20% | IPOHE Obs, percent (%) control rated visually ([8]; 4.375 g ai/ha): 80% | IPOHE Obs, percent (%) control rated visually ([8]; 8.75 g ai/ha): 85% | IPOHE Obs, percent (%) control rated visually ([8]; 17.5 g ai/ha): 85%

COC(=O)c1nc(-c2ccc(Cl)c(OC)c2F)cc(N)c1Cl [Cmpd 1, methyl 4-amino-3-chloro-6-(4-chloro-2-fluoro-3-methoxyphenyl)pyridine-2-carboxylate]
BRSNW Obs, percent (%) control rated visually ([1]; 1.25 g ae/ha): 0% | BRSNW Obs, percent (%) control rated visually ([1]; 2.5 g ae/ha): 5% | BRSNW Obs, percent (%) control rated visually ([1]; 5 g ae/ha): 20% | CHEAL Obs, percent (%) control rated visually ([2]; 1.25 g ae/ha): 70% | CHEAL Obs, percent (%) control rated visually ([2]; 2.5 g ae/ha): 80% | CHEAL Obs, percent (%) control rated visually ([2]; 5 g ae/ha): 93% | VIOTR Obs, percent (%) control rated visually ([3]; 1.25 g ae/ha): 10% | VIOTR Obs, percent (%) control rated visually ([3]; 2.5 g ae/ha): 10% | VIOTR Obs, percent (%) control rated visually ([3]; 5 g ae/ha): 30% | STEME Obs, percent (%) control rated visually ([4]; 1.25 g ae/ha): 30% | STEME Obs, percent (%) control rated visually ([4]; 2.5 g ae/ha): 20% | STEME Obs, percent (%) control rated visually ([4]; 5 g ae/ha): 40% | SETFA Obs, percent (%) control rated visually ([5]; 1.25 g ae/ha): 0% | SETFA Obs, percent (%) control rated visually ([5]; 2.5 g ae/ha): 0% | SETFA Obs, percent (%) control rated visually ([5]; 5 g ae/ha): 30% | SORVU Obs, percent (%) control rated visually ([6]; 1.25 g ae/ha): 0% | SORVU Obs, percent (%) control rated visually ([6]; 2.5 g ae/ha): 0% | SORVU Obs, percent (%) control rated visually ([6]; 5 g ae/ha): 0% | AMARE Obs, percent (%) control rated visually ([7]; 1.25 g ae/ha): 50% | AMARE Obs, percent (%) control rated visually ([7]; 2.5 g ae/ha): 60% | AMARE Obs, percent (%) control rated visually ([7]; 5 g ae/ha): 90% | IPOHE Obs, percent (%) control rated visually ([8]; 1.25 g ae/ha): 10% | IPOHE Obs, percent (%) control rated visually ([8]; 2.5 g ae/ha): 20% | IPOHE Obs, percent (%) control rated visually ([8]; 5 g ae/ha): 20% | CYPES Obs, percent (%) control rated visually ([9]; 1.25 g ae/ha): 50% | CYPES Obs, percent (%) control rated visually ([9]; 2.5 g ae/ha): 90% | CYPES Obs, percent (%) control rated visually ([9]; 5 g ae/ha): 93%

CCOc1nc(F)cc2nc(S(=O)(=O)Nc3c(Cl)cccc3Cl)nn12 [diclosulam, N-(2,6-dichlorophenyl)-5-ethoxy-7-fluoro[1,2,4]triazolo[1,5-c]pyrimidine-2-sulfonamide]
BRSNW Obs, percent (%) control rated visually ([1]; 4.375 g ai/ha): 80% | BRSNW Obs, percent (%) control rated visually ([1]; 8.75 g ai/ha): 85% | BRSNW Obs, percent (%) control rated visually ([1]; 17.5 g ai/ha): 90% | CHEAL Obs, percent (%) control rated visually ([2]; 4.375 g ai/ha): 0% | CHEAL Obs, percent (%) control rated visually ([2]; 8.75 g ai/ha): 10% | CHEAL Obs, percent (%) control rated visually ([2]; 17.5 g ai/ha): 40% | VIOTR Obs, percent (%) control rated visually ([3]; 4.375 g ai/ha): 10% | VIOTR Obs, percent (%) control rated visually ([3]; 8.75 g ai/ha): 50% | VIOTR Obs, percent (%) control rated visually ([3]; 17.5 g ai/ha): 70% | STEME Obs, percent (%) control rated visually ([4]; 4.375 g ai/ha): 0% | STEME Obs, percent (%) control rated visually ([4]; 8.75 g ai/ha): 0% | STEME Obs, percent (%) control rated visually ([4]; 17.5 g ai/ha): 0% | SETFA Obs, percent (%) control rated visually ([5]; 4.375 g ai/ha): 0% | SETFA Obs, percent (%) control rated visually ([5]; 8.75 g ai/ha): 0% | SETFA Obs, percent (%) control rated visually ([5]; 17.5 g ai/ha): 0% | SORVU Obs, percent (%) control rated visually ([6]; 4.375 g ai/ha): 0% | SORVU Obs, percent (%) control rated visually ([6]; 8.75 g ai/ha): 0% | SORVU Obs, percent (%) control rated visually ([6]; 17.5 g ai/ha): 0% | AMARE Obs, percent (%) control rated visually ([7]; 4.375 g ai/ha): 10% | AMARE Obs, percent (%) control rated visually ([7]; 8.75 g ai/ha): 20% | AMARE Obs, percent (%) control rated visually ([7]; 17.5 g ai/ha): 30% | IPOHE Obs, percent (%) control rated visually ([8]; 4.375 g ai/ha): 75% | IPOHE Obs, percent (%) control rated visually ([8]; 8.75 g ai/ha): 80% | IPOHE Obs, percent (%) control rated visually ([8]; 17.5 g ai/ha): 85% | CYPES Obs, percent (%) control rated visually ([9]; 4.375 g ai/ha): 60% | CYPES Obs, percent (%) control rated visually ([9]; 8.75 g ai/ha): 60% | CYPES Obs, percent (%) control rated visually ([9]; 17.5 g ai/ha): 70%
